Experiments:
[1] = Pharmacokinetic (PK) study in rats, plasma and liver levels by LC/MS-MS; type: in vivo, SD rats; settings: for oral bioavailability: rats
Protocol: Pharmacokinetic (PK) study of ester prodrug (FDURPAE), parent drug (FDUR) and prodrug in sodium salt form (FDURPAN) in rats were completed according to following procedure.
SD rats (250-300 g, male, N=24) were used for FDURPAE, FDUR and FDURPAN, purchased from SLAC Laboratory Animal Co. LTD Qualification No.: SCXK SH 2007-0005, 13264. FDURPAE (0.096 mmol, 52.17 mg/kg) and FDUR (0.096 mmol, 23.7 mg/kg) were dosed orally by gavage with a single dose of each compound to rats in a volume of 5 mL/kg in 0.5% carboxymethylcellulose sodium. FDURPAN (0.096 mmol, 50.24 mg) was dosed both orally or iv by gavage with a single dose to rats in a volume of 5 mL/kg in water. The animal was restrained manually at designated time points. Approximately 500 μL of blood/time point was collected into K2EDTA tube via cardiac puncture for terminal bleeding under anesthesia with Isoflurane. Blood samples were put on ice after collection and then centrifuged to obtain plasma sample (2000 g, 5 min, 4° C.) within 15 minutes of sampling. […] All the plasma samples were immediately quenched for protein precipitation. Liver samples were removed at designated time points by first sacrificing the animal by CO2 inhalation, then perfusing the liver with ice cold saline and removing the left middle liver lobe, which was then snap frozen in dry ice. Liver samples were stored at approximately −80° C. until analysis. The liver homogenate was then processed for further analysis by LC/MS-MS. Plasma and liver samples were stored at approximately −80° C. until analysis.
Concentrations of parent drug and possible metabolites in both plasma and liver including FDURPAN (stable metabolite of FDURPAE), FDUR, 5FU and FDUR-MP were determined by LC/MS-MS, respectively.

HCV subgenomic replicon = assay: HCV replicon assay (Huh-7, luciferase reporter); type: cell-based
Protocol: Anti-Hepatitis C Activity. Anti-HCV activity and cytotoxicity of compounds disclosed herein were assayed following the method described in WO 2007/027248.
The anti-HCV activity and toxicity of the exemplary compounds can be tested in two biological assays—a cell-based HCV replicon assay and cytotoxicity assay (WO 2007/027248).
A human hepatoma cell line (Huh-7) containing replicating HCV subgenomic replicon with a luciferase reporter gene (luc-ubi-neo) was used to evaluate anti-HCV activity of the compounds. In this assay, level of luciferase signal correlates with the viral RNA replication directly. The HCV replicon-reporter cell line (NK/luc-ubi-neo) was cultured in DMEM medium supplemented with 10% fetal bovine serum and 0.5 mg/ml Geneticin (G418). Cells were maintained in a subconfluent state to ensure high levels of HCV replicon RNA synthesis.
To evaluate the antiviral activity of compounds, serial dilutions were prepared with concentrations ranging from 0.14 to 300 μM. Diluted compounds were transferred to a 96-well plate followed by the addition of replicon cells (6000 cells per well). Cells were incubated with the compounds for 48 h after which luciferase activity was measured. Reduction of luciferase signal reflected the decrease of HCV replicon RNA in the treated cells and used to determine the EC50 value (concentration which yielded a 50% reduction in luciferase activity).

detection of active drug FDUR-MP in plasma ([1]; rat, oral administration) | detection of metabolite 5FU in plasma ([1]; rat, oral administration) | Compound | oral bioavailability [1] | anti-HCV activity (HCV subgenomic replicon)
could not be detected | could not be detected | Cc1ccccc1CO[P@](=O)(N[C@H](C)C(=O)OC(C)C)OCC1OC(n2cc(F)c(=O)[nH]c2=O)CC1O (single isomer, unassigned) [FDURPAE (F5)] | significantly improved oral bioavailability | –
– | – | CC1(F)C(O)C(COP(=O)(NCc2ccccc2)OCc2ccccc2)OC1n1ccc(=O)[nH]c1=O (stereo not drawn) [F2] | – | did not show any anti-HCV activity
– | – | Cc1ccccc1COP(=O)(NCc1ccccc1)OCC1OC(n2ccc(=O)[nH]c2=O)C(C)(F)C1O (stereo not drawn) [F3] | – | potent anti-HCV activity
– | – | Cc1ccccc1COP(=O)(NCc1ccccc1)OCC1OC(n2cc(F)c(=O)[nH]c2=O)CC1O (stereo not drawn) [F4] | very low | –

From patent US9156874B2, “Double-liver-targeting phosphoramidate and phosphonoamidate prodrugs” (Nanjing Molecular Research, Inc., priority 2011, dated 2015)
